In PubChem BioAssay AID1963429 (Molecular Pharmacology Branch, DTP, NCI, 2024):
pIC50: −log10 of the molar value. Where “and” joins values, the source holds several entries; their conditions need not be identical. Equal entries are not always repeated. Values belong to the compound of their own block, whether it stands above or below them.

Tested on: 126254-015-R-J1-PDC complex spheroid growth, % test/control
Test: Anticancer human tumor 126254-015-R-J1-PDC patient-derived soft tissue sarcoma cell line growth inhibition [Asc]
Conditions: for viability, T/C: stronger effect = lower value
Outline: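 Complex spheroids combining tumor cells with HUVEC endothelial cells and human MSCs, at 37 degrees C, 5% CO2; agents tested alone or combined, half-log dilutions from at or near clinical Cmax, or 10 microM if Cmax unknown.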

[1] = curve of first compound, second compound 0.1 µM
[2] = curve of first compound, second compound 0.316 µM
[3] = curve of first compound, second compound 1 µM
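Further: spheroids exposed to compound for seven days.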
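Wherever viability, T/C is given: 100% = DMSO vehicle control wells.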

SMILES: O=C(c1ccc(F)c(F)c1Nc1ccc(I)cc1F)N1CC(O)([C@@H]2CCCCN2)C1 + CCN1C(C(=O)NC23CCC(C(=O)O)(CC2)CC3)C(c2cccc(Cl)c2F)C2(C(=O)Nc3cc(Cl)ccc32)C12CCCCC2
pIC50 (curve of first compound, second compound 0.03 µM): 6.26
pIC50 (curve of first compound, second compound 0.0949 µM): 6.21
pIC50 (curve of first compound, second compound 0.3 µM): 6.24
pIC50 (curve of first compound, second compound 0.949 µM): 6.20
pIC50 (curve of first compound, second compound 3 µM): 6.19
viability, T/C (second compound 0.03 µM, first compound 0.00316 µM): 100%
viability, T/C (second compound 0.03 µM, first compound 0.01 µM): 108%
viability, T/C (second compound 0.03 µM, first compound 0.0316 µM): 97.2%
viability, T/C (second compound 0.03 µM, first compound 0.1 µM): 96.2%
viability, T/C (second compound 0.03 µM, first compound 0.316 µM): 65.6%
viability, T/C (second compound 0.03 µM, first compound 1 µM): 33.2%
viability, T/C (second compound 0.0949 µM, first compound 0.00316 µM): 105%
viability, T/C (second compound 0.0949 µM, first compound 0.01 µM): 109%
viability, T/C (second compound 0.0949 µM, first compound 0.0316 µM): 107%
viability, T/C (second compound 0.0949 µM, first compound 0.1 µM): 97.8%
viability, T/C (second compound 0.0949 µM, first compound 0.316 µM): 68.9%
viability, T/C (second compound 0.0949 µM, first compound 1 µM): 36.8%
viability, T/C (second compound 0.3 µM, first compound 0.00316 µM): 107%
viability, T/C (second compound 0.3 µM, first compound 0.01 µM): 106%
viability, T/C (second compound 0.3 µM, first compound 0.0316 µM): 112%
viability, T/C (second compound 0.3 µM, first compound 0.1 µM): 82.9%
viability, T/C (second compound 0.3 µM, first compound 0.316 µM): 68.8%
viability, T/C (second compound 0.3 µM, first compound 1 µM): 34.3%
viability, T/C (second compound 0.949 µM, first compound 0.00316 µM): 102%
viability, T/C (second compound 0.949 µM, first compound 0.01 µM): 110%
viability, T/C (second compound 0.949 µM, first compound 0.0316 µM): 106%
viability, T/C (second compound 0.949 µM, first compound 0.1 µM): 86.2%
viability, T/C (second compound 0.949 µM, first compound 0.316 µM): 63.5%
viability, T/C (second compound 0.949 µM, first compound 1 µM): 41.8%
viability, T/C (second compound 3 µM, first compound 0.00316 µM): 99.5%
viability, T/C (second compound 3 µM, first compound 0.01 µM): 99.7%
viability, T/C (second compound 3 µM, first compound 0.0316 µM): 100%
viability, T/C (second compound 3 µM, first compound 0.1 µM): 87.2%
viability, T/C (second compound 3 µM, first compound 0.316 µM): 69.2%
viability, T/C (second compound 3 µM, first compound 1 µM): 38.2%

SMILES: Cc1c(S(C)(=O)=O)c(-c2cc(F)cc(N3CCN(c4ccc(NS(=O)(=O)c5ccc(NC(CCN6CCC(C(=O)OCCCP(=O)(O)O)CC6)CSc6ccccc6)c(S(=O)(=O)C(F)(F)F)c5)cc4)CC3)c2)c(-c2ccc(Cl)cc2)n1C(C)C (stereo not drawn)
viability, T/C (compound 0.1 µM): 86.8% [middle of 14 runs]
viability, T/C (compound 0.316 µM): 85.8% [middle of 13 runs]
viability, T/C (compound 1 µM): 84.3% [middle of 14 runs]
viability, T/C (compound 3.16 µM): 87.8% [middle of 14 runs]
viability, T/C (compound 10 µM): 81.8% [middle of 14 runs]
pIC50 (compound alone, run of 09/27/2022): < 5.00

More lines, main results first:

pIC50 (curve of first compound, second compound 0.01 µM): 5.59
pIC50 (curve of first compound, second compound 0.0316 µM): 5.66
pIC50 [1]: 5.87
pIC50 [2]: 5.92
pIC50 [3]: 6.30
SMILES: C=C(F)C(=O)N1CCN(c2nc(OCC3CCCN3C)nc3c2CCN(c2cccc4cccc(Cl)c24)C3)CC1CC#N (stereo not drawn) + CNC(C)C(=O)NC1CN(S(=O)(=O)c2cccc(S(=O)(=O)N3CCC4CCC(C(=O)NC(c5ccccc5)c5ccccc5)N4C(=O)C(NC(=O)C(C)NC)C3)c2)CCC2CCC(C(=O)NC(c3ccccc3)c3ccccc3)N2C1=O
viability, T/C (second compound 0.01 µM, first compound 0.0316 µM): 80%
viability, T/C (second compound 0.01 µM, first compound 0.1 µM): 89.3%
viability, T/C (second compound 0.01 µM, first compound 0.316 µM): 80.1%
viability, T/C (second compound 0.01 µM, first compound 1 µM): 74.8%
viability, T/C (second compound 0.01 µM, first compound 3.16 µM): 44.3%
viability, T/C (second compound 0.01 µM, first compound 10 µM): 0.18%
viability, T/C (second compound 0.0316 µM, first compound 0.0316 µM): 71.4%
viability, T/C (second compound 0.0316 µM, first compound 0.1 µM): 71%
viability, T/C (second compound 0.0316 µM, first compound 0.316 µM): 71.4%
viability, T/C (second compound 0.0316 µM, first compound 1 µM): 63.9%
viability, T/C (second compound 0.0316 µM, first compound 3.16 µM): 43.5%
viability, T/C (second compound 0.0316 µM, first compound 10 µM): 0.14%
viability, T/C (second compound 0.1 µM, first compound 0.0316 µM): 61%
viability, T/C (second compound 0.1 µM, first compound 0.1 µM): 67.3%
viability, T/C (second compound 0.1 µM, first compound 0.316 µM): 64.6%
viability, T/C (second compound 0.1 µM, first compound 1 µM): 53.2%
viability, T/C (second compound 0.1 µM, first compound 3.16 µM): 35.2%
viability, T/C (second compound 0.1 µM, first compound 10 µM): 0.14%
viability, T/C (second compound 0.316 µM, first compound 0.0316 µM): 65.4%
viability, T/C (second compound 0.316 µM, first compound 0.1 µM): 66.1%
viability, T/C (second compound 0.316 µM, first compound 0.316 µM): 64%
viability, T/C (second compound 0.316 µM, first compound 1 µM): 45%
viability, T/C (second compound 0.316 µM, first compound 3.16 µM): 40.7%
viability, T/C (second compound 0.316 µM, first compound 10 µM): 0.15%
viability, T/C (second compound 1 µM, first compound 0.0316 µM): 58.7%
viability, T/C (second compound 1 µM, first compound 0.1 µM): 59.2%
viability, T/C (second compound 1 µM, first compound 0.316 µM): 57.5%
viability, T/C (second compound 1 µM, first compound 1 µM): 40.4%
viability, T/C (second compound 1 µM, first compound 3.16 µM): 27.4%
viability, T/C (second compound 1 µM, first compound 10 µM): 0.2%

pIC50 (curve of compound): 5.61 and 5.55 and 5.36
SMILES: C=C(F)C(=O)N1CCN(c2nc(OCC3CCCN3C)nc3c2CCN(c2cccc4cccc(Cl)c24)C3)CC1CC#N (stereo not drawn)
viability, T/C (compound 0.0316 µM): 92% and 107% and 106%
viability, T/C (compound 0.1 µM): 96.8% and 102% and 95.5%
viability, T/C (compound 0.316 µM): 94% and 110% and 105%
viability, T/C (compound 1 µM): 92.7% and 106% and 93.5%
viability, T/C (compound 3.16 µM): 37.7% and 43.4% and 69.6%
viability, T/C (compound 10 µM): 0.22% and 0.29% and 0.24%

pIC50 [1]: < 5.52
pIC50 [2]: < 5.52
pIC50 [3]: < 5.52
pIC50 (curve of first compound, second compound 3.16 µM): < 5.52
pIC50 (curve of first compound, second compound 10 µM): < 5.52
SMILES: CCN1C(C(=O)NC23CCC(C(=O)O)(CC2)CC3)C(c2cccc(Cl)c2F)C2(C(=O)Nc3cc(Cl)ccc32)C12CCCCC2 (stereo not drawn) + Cc1c(S(C)(=O)=O)c(-c2cc(F)cc(N3CCN(c4ccc(NS(=O)(=O)c5ccc(NC(CCN6CCC(C(=O)OCCCP(=O)(O)O)CC6)CSc6ccccc6)c(S(=O)(=O)C(F)(F)F)c5)cc4)CC3)c2)c(-c2ccc(Cl)cc2)n1C(C)C
viability, T/C (second compound 0.1 µM, first compound 0.00949 µM): 90.7%
viability, T/C (second compound 0.1 µM, first compound 0.03 µM): 85.1%
viability, T/C (second compound 0.1 µM, first compound 0.0949 µM): 91.7%
viability, T/C (second compound 0.1 µM, first compound 0.3 µM): 88.6%
viability, T/C (second compound 0.1 µM, first compound 0.949 µM): 93.9%
viability, T/C (second compound 0.1 µM, first compound 3 µM): 88.3%
viability, T/C (second compound 0.316 µM, first compound 0.00949 µM): 83.3%
viability, T/C (second compound 0.316 µM, first compound 0.03 µM): 82.4%
viability, T/C (second compound 0.316 µM, first compound 0.0949 µM): 81.9%
viability, T/C (second compound 0.316 µM, first compound 0.3 µM): 79.7%
viability, T/C (second compound 0.316 µM, first compound 0.949 µM): 74.9%
viability, T/C (second compound 0.316 µM, first compound 3 µM): 76.9%
viability, T/C (second compound 1 µM, first compound 0.00949 µM): 86.1%
viability, T/C (second compound 1 µM, first compound 0.03 µM): 84.4%
viability, T/C (second compound 1 µM, first compound 0.0949 µM): 87.1%
viability, T/C (second compound 1 µM, first compound 0.3 µM): 79.4%
viability, T/C (second compound 1 µM, first compound 0.949 µM): 82.7%
viability, T/C (second compound 1 µM, first compound 3 µM): 71.4%
viability, T/C (second compound 3.16 µM, first compound 0.00949 µM): 76%
viability, T/C (second compound 3.16 µM, first compound 0.03 µM): 83.8%
viability, T/C (second compound 3.16 µM, first compound 0.0949 µM): 77.2%
viability, T/C (second compound 3.16 µM, first compound 0.3 µM): 78.7%
viability, T/C (second compound 3.16 µM, first compound 0.949 µM): 81.3%
viability, T/C (second compound 3.16 µM, first compound 3 µM): 70.5%
viability, T/C (second compound 10 µM, first compound 0.00949 µM): 82.3%
viability, T/C (second compound 10 µM, first compound 0.03 µM): 86.5%
viability, T/C (second compound 10 µM, first compound 0.0949 µM): 88.8%
viability, T/C (second compound 10 µM, first compound 0.3 µM): 82.5%
viability, T/C (second compound 10 µM, first compound 0.949 µM): 75.5%
viability, T/C (second compound 10 µM, first compound 3 µM): 72.2%
